Measured values from patent US20180312237A1, “BALLAST WATER TREATMENT DEVICE AND BALLAST WATER TREATMENT METHOD” (Kuraray Co., Ltd., priority 2015, published 2018).

Tests used:
heterotrophic bacteria = assay: Number of heterotrophic bacteria (seawater medium) in sampled ballast water; assay type: cell-based
Description: In the present example, using a ballast water treatment device 100 shown in FIG. 8, 100 m^3 of seawater was supplied to a ballast tank 60 with a capacity of about 200 m^3. Specifically, first, a ballast pump 10 was activated to take in seawater from a pipe port 2A of a main pipe 2 by pump pressure. Microbes or particles in the seawater were removed by allowing the seawater to pass through a filter 20.
(§1) Next, by pouring a solution of TRO 2000 mg/L with dissolved sodium dichloroisocyanurate from a sterilizing component-introducing unit 40 to the seawater after being filtered by the above filter, the seawater was made to include a chlorine component. […]
(§2) With respect to each of the above sampled three kinds of ballast water (the ballast water immediately after filling, the ballast water after a lapse of 10 days after filling, and the ballast water in the ballast tank after the ballast water circulation), a TRO concentration and the number of heterotrophic bacteria (seawater medium) were measured. Additionally, as a comparison, the number of heterotrophic bacteria of the seawater was measured. As the TRO concentration, a value measured by a DPD colorimeter II (product of Hach Company) was adopted.

[1] = TRO concentration of sampled ballast water, DPD colorimeter II; assay type: physicochemical
Description: The ballast water treatment device 1 further includes a concentration measurement unit 41. […] The concentration measurement unit 41 is a sensor for measuring a chlorine concentration of ballast water in the ballast tank 60. Here, a “chlorine concentration (mg/L)” is measured as a total residual oxidant (TRO) concentration of seawater. The TRO concentration can be measured by a measuring instrument using a DPD reagent or the like. […] While in the present embodiment, the concentration measurement unit 41 is attached to the ballast tank 60, the position of the concentration measurement unit 41 is not limited thereto but can be any position that enables a concentration of a sterilizing component of the ballast water in the ballast tank 60 to be measured. For example, the concentration measurement unit 41 may be attached to the circulation pipe 80, or the concentration measurement unit 41 may be attached to the detour pipe 90, or the concentration measurement unit 41 may be attached to the main pipe 2 between the first connection part 2C and the second connection part 2D.
as §1, with “component. By stirring the seawater including a chlorine component by a mixer 50, a chlorine component in the seawater was made uniform to become ballast water, and the ballast tank 60 was filled with the ballast water.” for “component.”
as §2

[2] = ballast water after a lapse of 10 days after filling

With `O=c1[n-]c(=O)n(Cl)c(=O)n1Cl.[Na+]` [sodium dichloroisocyanurate] the “The number of bacteria” value (heterotrophic bacteria; [2]) was 4.6 × 10^5 cfu/cc, the “The number of bacteria” value (heterotrophic bacteria; ballast water immediately after filling, filtered seawater with poured TRO 2000 mg/L solution) was 7.4 × 10^1 cfu/cc and the TRO concentration [1, 2] was 0.2 mg/L. The TRO concentration ([1]; ballast water after circulation with additional sterilizing component) was 3.2 mg/L and the TRO concentration ([1]; ballast water immediately after filling) was 5.0 mg/L.
